Results: article PMC12406203 (Journal of Medicinal Chemistry, 2025)

Experiments:
[1] = tested on: MAPKAPK2
[2] = tested on: hAChE

CC(C)Cn1ncc2cc(Cc3ccc(F)cc3F)c(C(=O)NCCN(C)C)cc21 [Compound 94, 5-(2,4-Difluorobenzyl)-N-(2-(dimethylamino)ethyl)-1-isobutyl-1H-indazole-6-carboxamide]
RA @ 1000nM [1]: 100%
RA @ 10000nM [1]: 84%

CN(C)CCNC(=O)c1cc2c(cnn2CC2CCCCC2)cc1Cc1ccc(F)cc1F [Compound 95, 1-(Cyclohexylmethyl)-5-(2,4-difluorobenzyl)-N-(2-(dimethylamino)ethyl)-1H-indazole-6-carboxamide]
RA @ 1000nM [1]: 100%
RA @ 10000nM [1]: 100%
RA at 100 µM [2]: 53.4 ± 0.8%
